From US6194173A, “Binding proteins for phosphoinositides, GRP1 or general receptor 1 for phophoinositide” (priority 1999, dated 2001)
One block for each molecule: values may come before it.

Experiments:
GSTPH(GRP) = biological target: T1, GSTPH(GRP) (Mus musculus, UniProt O08967); assay: Competition of [32P]PI(3,4,5)P3 binding to GST-PH by inositol phosphate head groups; parameters: species or system murine; settings: for inhibition of [^32 P]PI(3,4,5)P3 binding to GST-PH(GRP): 100 μM competitor; for binding of inositol phosphate to GRP polypeptides: statement in the description
T1 construct: residues 239 to 399 (PH domain); made in house; host or cells: bacteria
T1 sequence (O08967 239-399): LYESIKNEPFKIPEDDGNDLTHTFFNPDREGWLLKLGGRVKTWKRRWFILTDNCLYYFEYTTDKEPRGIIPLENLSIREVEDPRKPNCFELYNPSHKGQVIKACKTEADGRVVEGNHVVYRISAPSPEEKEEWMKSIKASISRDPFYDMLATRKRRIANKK
Description: (§1) To generate the GST fusion proteins, PCR reactions using the primers: […] (SEQ ID NO:9) and […] (SEQ ID NO:10) for the GST-N construct, […] (SEQ ID NO:11) and […] (SEQ ID NO:12) for the GST-Sec7 construct, […] (SEQ ID NO:13) and […] (SEQ ID NO:14) for the GSTPH construct, and […] (SEQ ID NO:15) and […] (SEQ ID NO:16) for the GSTGRP constructs. The sequences of the PCR products were verified, and cloned into pGEX-5X-3 in the EcoRI and Xba 1 sites. The bacteria were lysed and the fusion proteins were bound to gluthathione agarose according to standard procedures. Elution was effected by incubation of the beads with one volume 20 mM Hepes, 100 mM NaCl, 1 mM dithiotreitol (H buffer) supplemented with 10 mM gluthatione and 1% sodium cholate, and the eluate was dialyzed extensively against H buffer. For binding assays, protein was bound to nitrocellulose using a BIO-RAD BIO-DOT™ apparatus, using 150 pmol per well for binding assays and 7.5 pmol for competition assays. The nitrocellulose was washed in assay buffer, and 3 mm circles of the filters containing the protein were cut out and incubated in […] assay buffer with the relevant lipids and competitors for 2 h under constant agitation. The filters were washed four times with 1 mL assay buffer and counted in a scintillation counter.
The specificity of the GRP PH domain for binding [^32 P]PI(3,4,5,)P3 was also examined with respect to competition by the inositol phosphate head groups of the phosphoinositides. […] More specifically, 25,000 cpm of [^32 P]PI(3,4,5)P3 was incubated with varying concentrations of inositol 1 ,3,4,5P4 and bound radioactivity determined. The amount of radioactivity bound was calculated as percent of that bound in the absence of competitor. The values are means of quadruplicate measurements, and the error bars are standard deviations. The lack of inhibition by the latter two phosphoinositides is particularly striking since they carry the same charge as the inhibitor […] The concentration of inositol 1,3,4,5-P4 that inhibited binding of [^32 p]PI(3,4,5,)P3 half maximally was about 3-6 μM (FIG. 5A). Taken together, the data in FIGS. 4 and 5 indicate extraordinary specificity of the GRP PH domain for PI(3,4,5)P3. […] The binding to GST fusion proteins containing amino acids 462-569 of murine Sos or amino acid 13-115 of murine IRS-1 was assayed using 150 pmoles of protein bound to the filters. Competition of binding to 7.5 pmoles of GST-PH was measured in the presence of 100 μM of the competitors. The values were calculated as in (A), and are means of quadruplicate measurements and the error bars represent standard deviations.

GRP = biological target: T2, GRP (Mus musculus, UniProt O08967); assay: Inhibition by inositol phosphates of PtdIns(3,4,5)P3-stimulated GRP-mediated ARF1 exchange; type: biochemical; settings: 100 μM inositol phosphate, 0.05% cholate and 0.05% CHAPS
T2 construct: GST (N, cleaved yes); made in house; host or cells: GRP from pGEX-4T; ARF1 from baculovirus-infected Sf-9 cells
T2 sequence (O08967 1-399): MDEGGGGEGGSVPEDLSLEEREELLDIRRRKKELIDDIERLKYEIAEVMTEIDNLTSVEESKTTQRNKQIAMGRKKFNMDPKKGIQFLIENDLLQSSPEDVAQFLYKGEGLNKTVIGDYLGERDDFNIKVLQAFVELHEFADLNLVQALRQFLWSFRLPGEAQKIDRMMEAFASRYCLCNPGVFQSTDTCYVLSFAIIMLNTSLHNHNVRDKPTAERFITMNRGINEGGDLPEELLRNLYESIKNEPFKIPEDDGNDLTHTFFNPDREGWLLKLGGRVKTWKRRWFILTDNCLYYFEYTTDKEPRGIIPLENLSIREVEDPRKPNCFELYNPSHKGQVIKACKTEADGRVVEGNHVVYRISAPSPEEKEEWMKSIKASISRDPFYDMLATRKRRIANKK

[1] = Binding of [32P]PI(3,4,5)P3 by GST fusion proteins spotted on nitrocellulose; settings: 150 pmol protein on nitrocellulose; relative to GST
Method: The 3'-phosphatidylinositol probes labeled at the 3' position were generated using GST-p110 PI3-kinase purified from recombinant bacculovirus infected Sf 9 cells, using either purified phosphatidylinositol phosphates or crude brain lipid. Briefly, 20 mg phospholipid in chloroform was dried under N2 and resuspended in […] of buffer containing Tris-HCl pH 7.4, EDTA 1 mM and incubated in […] phopsphorylation media containing 20 mM Tris-HCl pH 7.4, 100 mM NaCl, 10 mM MgCl2, 0.5 mM EGTA. 0.2 mM adenosine, GST-p110 and 5-10 mCi [g-^32 P]ATP (5 Ci/umol). The reaction was carried out for 2 h at room temperature, quenched by addition of 0.2 ml of 1M HCl, followed by 0.5 ml of chloroform:methanol (1:1). The organic phase containing phospholipids was washed 4 times with 0.4 ml of methanol:HCl (1: 1) and stored at -70° C. until use. Just before use, the lipid was dried under a stream of nitrogen with phosphatidyl serine corresponding to a final concentration of 20 mg/ml. The identities of the PI3-P, PI3,4-P2 and PI3,4,5-P3 were confirmed by TLC and HPLC analysis.
as §1
In order to determine whether PI(3,4,5)P3 binding could be localized to specific sequences within the GRP structure, GST fusion proteins containing either residues 239 to 399 (PH domain), residues 52 to 260 (Sec7 domain), or residues 5 to 71, full length GRP residues 5-399 were expressed in bacteria and purified on glutathione-conjugated beads. […] 150 pmol of the proteins were spotted on nitrocellulose filters, incubated with [^32 P]PI(3,4,5)P3 and the amount of bound lipid was determined as described. The values are the means of the quadruplicate determinations, and the error bars are the standard deviations. […] Nitrocellulose filters with GST-PH were incubated with 25,000 cpm of each of the phospholipids and the amount of bound lipid determined as described above. The values are the means of quadruplicate determinations and the error bars are the standard deviations. […] Although previous work has shown that PH domain from PLCδ (Lemmon et al. (1995) supra) and various other proteins bind 4,5-polyphosphoinositide, none have been reported to preferentially associate with a 3-polyphosphoinositide. […]

ARF1 = ARF1 guanine nucleotide exchange ([35S]GTPγS binding); type: biochemical; settings: [^35 S]GTPγS binding to immunoprecipitated ARF1

B1: GRP Sec7 domain: GST fusion protein containing residues 52 to 260 (Sec7 domain) (protein, UniProt O08967 52-260, looked up, fragment)
chain: IDNLTSVEESKTTQRNKQIAMGRKKFNMDPKKGIQFLIENDLLQSSPEDVAQFLYKGEGLNKTVIGDYLGERDDFNIKVLQAFVELHEFADLNLVQALRQFLWSFRLPGEAQKIDRMMEAFASRYCLCNPGVFQSTDTCYVLSFAIIMLNTSLHNHNVRDKPTAERFITMNRGINEGGDLPEELLRNLYESIKNEPFKIPEDDGNDLTH
modifications: Sec7 domain GST fusion
- binding of [^32 P]PI(3,4,5)P3 by GST fusion protein [1]: No significant binding
- ARF1 guanine nucleotide exchange (ARF1): high activity
- ARF1 guanine nucleotide exchange (ARF1; listed as SEC7 homology domain): as effective as the fill length GRP
- ARF1 guanine nucleotide exchange (ARF1; listed as Sec 7 domains of GRP): sufficient for catalysis

B2: IRS-1PH domain: GST fusion protein containing amino acid 13-115 of murine IRS-1 (protein, UniProt P35569 13-115, looked up, fragment)
chain: VRKVGYLRKPKSMHKRFFVLRAASEAGGPARLEYYENEKKWRHKSSAPKRSIPLESCFNINKRADSKNKHLVALYTRDEHFAIAADSEAEQDSWYQALLQLHN
modifications: PH domain GST fusion
- binding of [^32 P]PI(3,4,5)P3 by GST fusion protein [1]: negligible

B3: GRP PH domain: GST fusion protein containing residues 239 to 399 (PH domain) (protein)
chain: T1 sequence (O08967 239-399)
modifications: GST fusion partner
- binding of [^32 P]PI(3,4,5)P3 by GST fusion protein [1]: extensive binding
- ARF1 guanine nucleotide exchange (ARF1): no effect

The remaining lines, values ahead:

- inhibition of [^32 P]PI(3,4,5)P3 binding to GST-PH(GRP) (GSTPH(GRP)): little or no effect
- binding of inositol phosphate to GRP polypeptides (GSTPH(GRP)): not
- inhibition of PtdIns(3,4,5)P3-stimulated GRP-mediated ARF1 guanine nucleotide exchange (GRP): failed to inhibit
Molecule: O=P(O)(O)O[C@H]1[C@H](OP(=O)(O)O)[C@@H](OP(=O)(O)O)[C@H](O)[C@@H](O)[C@H]1OP(=O)(O)O (relative stereo) [Ins(1,2,5,6)P4, inositol 1,2,5,6-P4]

- inhibition of PtdIns(3,4,5)P3-stimulated GRP-mediated ARF1 guanine nucleotide exchange (GRP): failed to inhibit
Molecule: O=P(O)(O)O[C@H]1[C@H](O)[C@@H](O)[C@H](OP(=O)(O)O)[C@@H](OP(=O)(O)O)[C@H]1O [Ins(1,3,4)P3]

- inhibition of [^32 P]PI(3,4,5)P3 binding to GST-PH(GRP) (GSTPH(GRP)): markedly inhibited
- IC50 (GSTPH(GRP); 25,000 cpm [^32 P]PI(3,4,5)P3, GST-PH, read-out: concentration that inhibited binding of [^32 p]PI(3,4,5)P3 half maximally): 3 to 6 µM
- binding of inositol phosphate to GRP polypeptides (GSTPH(GRP)): bind
- inhibition of PtdIns(3,4,5)P3-stimulated GRP-mediated ARF1 guanine nucleotide exchange (GRP): virtually ablated
- inhibition of PtdIns(3,4,5)P3-stimulated GRP-mediated ARF1 guanine nucleotide exchange (GRP; listed as Ins(1,3,4,5) tetrakisphosphate): selectively blocked
Molecule: O=P(O)(O)O[C@H]1[C@H](O)[C@@H](OP(=O)(O)O)[C@H](OP(=O)(O)O)[C@@H](OP(=O)(O)O)[C@H]1O [Ins(1,3,4,5)P4, inositol 1,3,4,5-P4]

- inhibition of [^32 P]PI(3,4,5)P3 binding to GST-PH(GRP) (GSTPH(GRP)): little or no effect
- binding of inositol phosphate to GRP polypeptides (GSTPH(GRP)): not
- inhibition of PtdIns(3,4,5)P3-stimulated GRP-mediated ARF1 guanine nucleotide exchange (GRP): failed to inhibit
Molecule: O=P(O)(O)O[C@@H]1[C@@H](O)[C@H](OP(=O)(O)O)[C@@H](OP(=O)(O)O)[C@@H](O)[C@H]1OP(=O)(O)O [Ins(1,3,4,6)P4, inositol 1,3,4,6-P4]

- binding of [^32 P]PI(3,4,5)P3 by GST fusion protein [1]: No significant binding
- ARF1 guanine nucleotide exchange (ARF1): no effect
B4: N-terminus of GRP: GST fusion protein containing residues 5 to 71 (protein, UniProt O08967 5-71, looked up, fragment)
chain: GGGEGGSVPEDLSLEEREELLDIRRRKKELIDDIERLKYEIAEVMTEIDNLTSVEESKTTQRNKQIA
modifications: GST fusion
